This passage reports solubility results from patent US20110159088A1, “ORAL PHARMACEUTICAL FOR BASED ON AT LEAST ONE ACTIVE PRINCIPLE WHOSE SOLUBILITY VARIES AS A FUNCTION OF THE GASTRIC pH CONDITIONS” (Flamel Technologies, S.A., priority 2005, published 2011).

In brackets after ≈: the same amount, converted by molar mass.

A short description of this series: physchem. In kind it is physicochemical. As to conditions: 37 °C. The procedure: This solubility is measured in an aqueous medium at 37° C., maintained at the pH under consideration. The solubility of Irbesartan varies greatly in the gastric pH range: The solubility of Eprosartan varies greatly in the gastric pH range: The solubility of Acyclovir varies greatly in the gastric pH range: […]

Setting [1] is: pH 1.2, simulated gastric fluid.

Regarding `CCCCC1=NC2(CCCC2)C(=O)N1Cc1ccc(-c2ccccc2-c2nnn[nH]2)cc1` [Irbesartan], the solubility is, setting by setting: under setting [1], 2420 µg/mL (≈ 5650 µM); (pH 2, simulated gastric fluid) 362 µg/mL (≈ 845 µM); (pH 3, aqueous buffer) 48 µg/mL (≈ 112 µM); (pH 4.5, aqueous buffer) 20 µg/mL (≈ 46.7 µM); (pH 5.5, aqueous buffer) 65 µg/mL (≈ 152 µM); (pH 6.8, aqueous buffer) 666 µg/mL (≈ 1550 µM).

In turn, `CCCCc1ncc(/C=C(\Cc2cccs2)C(=O)O)n1Cc1ccc(C(=O)O)cc1` [Eprosartan] showed a solubility under setting [1] of 795 µg/mL (≈ 1870 µM); a solubility (pH 2, simulated gastric fluid) of 142 µg/mL (≈ 334 µM); a solubility (pH 3, aqueous buffer) of 33 µg/mL (≈ 77.7 µM); a solubility (pH 4.5, aqueous buffer) of 18 µg/mL (≈ 42.4 µM); a solubility (pH 5.5, aqueous buffer) of 15 µg/mL (≈ 35.3 µM); a solubility (pH 6.8, aqueous buffer) of 1190 µg/mL (≈ 2810 µM).

Turning to `Nc1nc2c(ncn2COCCO)c(=O)[nH]1` [Acyclovir], the solubility runs as follows: under setting [1], 10500 µg/mL (≈ 46600 µM); (pH 2, simulated gastric fluid) 6000 µg/mL (≈ 26600 µM); (pH 2.5, aqueous buffer) 3300 µg/mL (≈ 14700 µM); (pH 4.5, aqueous buffer) 2600 µg/mL (≈ 11500 µM); (pH 6.8, aqueous buffer) 2500 µg/mL (≈ 11100 µM).

In general, solubility refers to the dissolved amount per volume that the medium holds. Higher therefore signals much dissolved substance.
